Source: patent publication US20130012546A1 (priority 2009, published 2013)

Test system: not listed separately
Assay: logP(HCOOH) by HPLC
Type: physicochemical
Conditions: HPLC on reversed phase columns, pH 2.7, 0.1% formic acid in water / acetonitrile gradient

Point of comparison: `CC1=C(CC(C)OCC(=O)Nc2cccc(CON=C(c3ccccc3)c3nnnn3C)n2)C1` (stereo not shown) [compound 223], log p 4.3. Against it:
- CCC(OC1CCC1)C(=O)Nc1cccc(CON=C(c2ccccc2)c2nnnn2C)n1 (stereo not shown) [compound 194] — within 0.2 log units, 4.11
- CCC(OC1CCCC1)C(=O)Nc1cccc(CON=C(c2ccccc2)c2nnnn2C)n1 (stereo not shown) [compound 196] — higher, 4.51
- CC1=C(CC(C)OCC(=O)Nc2nc(CON=C(c3ccccc3)n3nnnc3C)cs2)C1 (stereo not shown) [compound 215] — within 0.2 log units, 4.11
- CC(C)=NOC(C)C(=O)Nc1cccc(CON=C(c2ccccc2)n2nnnc2C)n1 (stereo not shown) [compound 203] — lower, 3.35
- CC1=C(CC(C)OCC(=O)Nc2cccc(CON=C(c3ccccc3)n3nnnc3C)n2)C1 (stereo not shown) [compound 221] — within 0.2 log units, 4.37
- CC(C)=NOCCOC(=O)Nc1cccc(CON=C(c2ccccc2)c2nnnn2C)n1 [compound 213] — lower, 3.11
- CC1=C(CC(C)OCC(=O)Nc2nc(CON=C(c3ccccc3)n3nnnc3C)cs2)C1(C)C (stereo not shown) [compound 216] — higher, 4.91
- CC(=NOCC(=O)Nc1cccc(CON=C(c2ccccc2)n2nnnc2C)n1)c1ccccc1 [compound 202] — lower, 3.94
- CC1CCCC(OC(C)C(=O)Nc2cccc(CON=C(c3ccccc3)c3nnnn3C)n2)C1 (stereo not shown) [compound 197] — higher, 4.81
- CC(=NOCC(=O)Nc1cccc(CON=C(c2ccccc2)n2nnnc2C)n1)C(C)(C)C [compound 204] — within 0.2 log units, 4.34
- Cn1nnnc1C(=NOCc1csc(NC(=O)OC2CCc3ccccc3C2)n1)c1ccccc1 (stereo not shown) [compound 211] — within 0.2 log units, 4.14
- CC1=C(CC(C)OCC(=O)Nc2nc(CON=C(c3ccccc3)c3nnnn3C)cs2)C1(C)C (stereo not shown) [compound 218] — higher, 4.83
- CC1=C(CC(C)OCC(=O)Nc2cccc(CON=C(c3ccccc3)c3nnnn3C)n2)C1(C)C (stereo not shown) [compound 224] — higher, 5.14
- CC1=C(CC(C)OCC(=O)Nc2nc(CON=C(c3ccccc3)c3nnnn3C)cs2)C1 (stereo not shown) [compound 219] — lower, 4.03
- Cc1nnnn1C(=NOCc1csc(NC(=O)CC=COc2ccccc2)n1)c1ccccc1 [compound 217] — lower, 3.61

Same assay, conditions: HPLC on reversed phase columns, pH 2.7, 0.1% formic acid in water / acetonitrile, linear gradient 10% to 95% acetonitrile; EEC directive 79/831 Annex V.A8

Point of comparison: `CC(OC1CCCCCC1)C(=O)Nc1cccc(CON=C(c2ccccc2)c2nnnn2C)n1` (stereo not shown) [Example 100], log p 4.8. Against it:
- Cc1nnnn1C(=NOCc1cccc(NC(=O)COC2CCC2)n1)c1ccccc1 [Example 83] — lower, 3.55
- Cn1nnnc1C(=NOCc1cccc(NC(=O)COC2CCC2)n1)c1ccccc1 [Example 81] — lower, 3.46
- CC(C)=NOC(C)C(=O)Nc1cccc(CO/N=C(/c2ccccc2)c2nnnn2C)n1 (stereo not shown) [Example 32] — lower, 3.25
- C#CCOCC(=O)Nc1cccc(CON=C(c2ccccc2)c2nnnn2C)n1 [Example 4] — lower, 2.8
- CC(=NOCC(=O)Nc1cccc(CON=C(c2ccccc2)c2nnnn2C)n1)c1ccccc1 [Example 33] — lower, 3.92
- CC(OC1CCCCC1)C(=O)Nc1cccc(CON=C(c2ccccc2)c2nnnn2C)n1 (stereo not shown) [Example 99] — lower, 4.49
- CON=C(C(=O)Nc1nc(CON=C(c2ccccc2)c2nnnn2C)cs1)c1ccc(Br)cc1 [Example 8] — lower, 4.37
- CC(=NOCC(=O)Nc1nc(CON=C(c2ccccc2)c2nnnn2C)cs1)c1ccccc1 [Example 36] — lower, 3.76
- Cc1nnnn1C(=NOCc1cccc(NC(=O)OCCC2CCCCC2)n1)c1ccccc1 [Example 15] — higher, 5.19
- CON=C(C(=O)Nc1nc(CON=C(c2ccccc2)c2nnnn2C)cs1)c1ccc(Cl)cc1 [Example 7] — lower, 4.27
- CON=C(C(=O)Nc1cccc(CON=C(c2ccccc2)c2nnnn2C)n1)c1ccc(Cl)cc1 [Example 3] — lower, 4.51
- C#CCOCC(=O)Nc1nc(CON=C(c2ccccc2)c2nnnn2C)cs1 [Example 13] — lower, 2.64
- CON=C(C(=O)Nc1nc(CON=C(c2ccccc2)c2nnnn2C)cs1)c1cccc(Cl)c1Cl [Example 11] — lower, 4.27
- Cc1nnnn1/C(=N\OCc1csc(NC(=O)OC(C)CC2CC2)n1)c1ccccc1 (stereo not shown) [Example 56] — lower, 3.87
- CC1CCC(OC(C)C(=O)Nc2nc(CON=C(c3ccccc3)c3nnnn3C)cs2)CC1 (stereo not shown) [compound 178] — lower, 4.44
- Cc1nnnn1C(=NOCc1csc(NC(=O)OCCCC2CC2)n1)c1ccccc1 [Example 68] — lower, 3.9
- Cc1nnnn1C(=NOCc1cccc(NC(=O)COC2CC(C)CCC2C(C)C)n1)c1ccccc1 (stereo not shown) [Example 108] — higher, 5.95
- C=C(C)C(C)=CCC(C)OCC(=O)Nc1nc(CON=C(c2ccccc2)n2nnnc2C)cs1 (stereo not shown) [compound 110] — lower, 4.56
- CCC(OC1CCCCC1)C(=O)Nc1cccc(CON=C(c2ccccc2)n2nnnc2C)n1 (stereo not shown) [compound 186] — within 0.2 log units, 4.91
- Cc1nnnn1C(=NOCc1cccc(NC(=O)C(C)OC2CCCC2)n1)c1ccccc1 (stereo not shown) [compound 183] — lower, 4.12
- CC(OC1CCCCC1)C(=O)Nc1nc(CON=C(c2ccccc2)c2nnnn2C2CC2)cs1 (stereo not shown) [compound 164] — lower, 4.53
- CC1CCCC(OC(C)C(=O)Nc2nc(CON=C(c3ccccc3)c3nnnn3C)cs2)C1 (stereo not shown) [compound 177] — lower, 4.44
- Cc1nnnn1C(=NOCc1csc(NC(=O)C(C)OC2CCCC(C)C2)n1)c1ccccc1 (stereo not shown) [compound 170] — lower, 4.53
- CON=C(C(=O)Nc1nc(CON=C(c2ccccc2)n2nnnc2C)cs1)c1cccc(Cl)c1Cl [Example 30] — lower, 4.32
- Cn1nnnc1/C(=N\OCc1cccc(NC(=O)OCC2CC2)n1)c1ccccc1 [Example 58] — lower, 3.46
- CON=C(C(=O)Nc1nc(CON=C(c2ccccc2)n2nnnc2C)cs1)c1ccc(Br)cc1 [Example 29] — lower, 4.41
- Cc1nnnn1C(=NOCc1cccc(NC(=O)OC2CC3CCC2(C)C3(C)C)n1)c1ccccc1 (stereo not shown) [compound 143] — higher, 5.3
- CCON=C(C(=O)Nc1cccc(CON=C(c2ccccc2)c2nnnn2C)n1)c1ccc(Cl)cc1 [compound 137] — within 0.2 log units, 4.83
- Cc1nnnn1C(=NOCc1cccc(NC(=O)C(C)OC2CCC(C)CC2)n1)c1ccccc1 (stereo not shown) [compound 191] — within 0.2 log units, 4.93
- CON=C(C(=O)Nc1cccc(CON=C(c2ccccc2)c2nnnn2C)n1)c1ccc(C)cc1 [compound 138] — lower, 4.27
- C#CCOC(C(=O)Nc1nc(CON=C(c2ccccc2)n2nnnc2C)cs1)C(C)C (stereo not shown) [compound 114] — lower, 3.46
- Cc1nnnn1C(=NOCc1csc(NC(=O)C(C)OC2CCC(C)CC2)n1)c1ccccc1 (stereo not shown) [compound 171] — lower, 4.53
- Cn1nnnc1/C(=N\OCc1cccc(NC(=O)OCC2CCCCC2)n1)c1ccccc1 [Example 57] — within 0.2 log units, 4.72
- Cc1nnnn1C(=NOCc1cccc(NC(=O)OCCC2CCCC2)n1)c1ccccc1 [compound 156] — within 0.2 log units, 4.71
- Cn1nnnc1C(=NOCc1csc(NC(=O)OCCC2CC2)n1)c1ccccc1 [compound 149] — lower, 3.46
- CCON=C(C(=O)Nc1nc(CON=C(c2ccccc2)c2nnnn2C)cs1)c1ccc(Cl)cc1 [compound 128] — lower, 4.56
- Cc1nnnn1C(=NOCc1cccc(NC(=O)OC(C)C2CCCC2)n1)c1ccccc1 (stereo not shown) [compound 158] — within 0.2 log units, 4.71
- Cn1nnnc1C(=NOCc1cccc(NC(=O)OCCCC2CCCCC2)n1)c1ccccc1 [Example 71] — higher, 5.45
- CC(OC(=O)Nc1nc(CON=C(c2ccccc2)c2nnnn2C)cs1)C1CCCCC1 (stereo not shown) [compound 151] — lower, 4.58
- CCC(OC1CCC1)C(=O)Nc1nc(CON=C(c2ccccc2)n2nnnc2C)cs1 (stereo not shown) [compound 167] — lower, 3.83
- Cn1nnnc1C(=NOCc1csc(NC(=O)OCCCC2CCCC2)n1)c1ccccc1 [Example 73] — within 0.2 log units, 4.7
- Cn1nnnc1C(=NOCc1csc(NC(=O)OCCCC2CCCCC2)n1)c1ccccc1 [Example 75] — higher, 5.03
- CON=C(C(=O)Nc1cccc(CON=C(c2ccccc2)n2nnnc2C)n1)c1ccc(C)cc1 [compound 134] — lower, 4.44
- Cn1nnnc1C(=NOCc1csc(NC(=O)OCC2CCCC2)n1)c1ccccc1 [Example 74] — lower, 3.92
- Cc1nnnn1C(=NOCc1cccc(NC(=O)C(C)OC2CCCC(C)C2)n1)c1ccccc1 (stereo not shown) [compound 190] — within 0.2 log units, 4.96
- Cn1nnnc1C(=NOCc1cccc(NC(=O)OCC2CCCC2)n1)c1ccccc1 [Example 70] — lower, 4.25
- C#CCOCC(=O)Nc1nc(CO/N=C(/c2ccccc2)n2nnnc2C)cs1 [Example 49] — lower, 2.69
- Cc1nnnn1C(=NOCc1csc(NC(=O)OCCCC2CCCC2)n1)c1ccccc1 [Example 65] — within 0.2 log units, 4.77
- CCC(OC1CCCCC1)C(=O)Nc1nc(CON=C(c2ccccc2)c2nnnn2C)cs1 (stereo not shown) [compound 173] — lower, 4.42
- CCON=C(C(=O)Nc1nc(CON=C(c2ccccc2)n2nnnc2C)cs1)c1ccc(C)cc1 [compound 127] — lower, 4.49
- C=C=CCCCOC(=O)Nc1cccc(CON=C(c2ccccc2)n2nnnc2C)n1 [compound 142] — lower, 4.01
- CC(OC1CCC1)C(=O)Nc1nc(CON=C(c2ccccc2)c2nnnn2C)cs1 (stereo not shown) [compound 172] — lower, 3.39
- Cn1nnnc1C(=NOCc1cccc(NC(=O)OCC2CCC2)n1)c1ccccc1 [compound 163] — lower, 3.92
- Cn1nnnc1C(=NOCc1csc(NC(=O)COCC#C[Si](C)(C)C)n1)c1ccccc1 [compound 118] — lower, 3.7
- CC(OC1CCCCC1)C(=O)Nc1cccc(CON=C(c2ccccc2)c2nnnn2C2CC2)n1 (stereo not shown) [compound 180] — within 0.2 log units, 4.93

Test system: Phytophthora infestans
Assay: not given
Type: in vivo
Conditions: tomato plants, preventive spray, 100 ppm of active ingredient, evaluated 7 days after inoculation

Point of comparison: `CC(=NOCC(=O)Nc1cccc(CON=C(c2ccccc2)c2nnnn2C)n1)c1ccccc1` [Example 33], Efficacy % 80%. Against it:
- Cc1nnnn1C(=NOCc1cccc(NC(=O)COC2CCC2)n1)c1ccccc1 [Example 83] — higher, 90%
- Cn1nnnc1C(=NOCc1cccc(NC(=O)COC2CCC2)n1)c1ccccc1 [Example 81] — the same, 80%
- CC(C)=NOC(C)C(=O)Nc1cccc(CO/N=C(/c2ccccc2)c2nnnn2C)n1 (stereo not shown) [Example 32] — lower, 70%
- C#CCOCC(=O)Nc1cccc(CON=C(c2ccccc2)c2nnnn2C)n1 [Example 4] — higher, 85%
- CC(OC1CCCCC1)C(=O)Nc1cccc(CON=C(c2ccccc2)c2nnnn2C)n1 (stereo not shown) [Example 99] — higher, 90%
- CON=C(C(=O)Nc1nc(CON=C(c2ccccc2)c2nnnn2C)cs1)c1ccc(Br)cc1 [Example 8] — higher, 93%
- CC(=NOCC(=O)Nc1nc(CON=C(c2ccccc2)c2nnnn2C)cs1)c1ccccc1 [Example 36] — higher, 95%
- Cc1nnnn1C(=NOCc1cccc(NC(=O)OCCC2CCCCC2)n1)c1ccccc1 [Example 15] — higher, 95%
- CON=C(C(=O)Nc1nc(CON=C(c2ccccc2)c2nnnn2C)cs1)c1ccc(Cl)cc1 [Example 7] — higher, 95%
- CON=C(C(=O)Nc1cccc(CON=C(c2ccccc2)c2nnnn2C)n1)c1ccc(Cl)cc1 [Example 3] — lower, 75%
- Cn1nnnc1C(=NOCc1csc(NC(=O)OC2CC3CCC2(C)C3(C)C)n1)c1ccccc1 (stereo not shown) [Example 104] — higher, 93%
- C#CCOCC(=O)Nc1nc(CON=C(c2ccccc2)c2nnnn2C)cs1 [Example 13] — higher, 85%
- CON=C(C(=O)Nc1nc(CON=C(c2ccccc2)c2nnnn2C)cs1)c1cccc(Cl)c1Cl [Example 11] — higher, 95%
- Cc1nnnn1/C(=N\OCc1csc(NC(=O)OC(C)CC2CC2)n1)c1ccccc1 (stereo not shown) [Example 56] — higher, 95%
- Cn1nnnc1C(=NOCc1csc(NC(=O)OC2CC3CCC2(C)C3(C)C)n1)c1cccc(F)c1 (stereo not shown) [Example 105] — the same, 80%
